Patent US20100003217A1, “Compounds and Pharmaceutical Compositions for the Treatment of Viral Infections” (priority 2008, published 2010)

What was measured:
[1] = test system: S282T HCV replicon (184R-A cells); assay: microbe, parasite or virus in culture; conditions: Hepatitis C virus
Description: 3. The 184R-A cell line was derived by culturing wild-type replicon cells in the presence of 1 to 5 μM of Compound 1 for >100 days.
(§1) 1. […] Huh-7 cells were seeded into column 1 of each plate at a similar density.
(§2) 2. […] Eight additional 3-fold serial dilutions of each compound were prepared from the 2× stock in assay medium. Final drug concentrations ranged from 100 to 0.015 μM.
(§3) 3. […] This setup was run in duplicate in each 96-well plate.
(§4) 4. Cells were incubated with inhibitors for three days at 37° C./5% CO2.
(§5) 1. After three days of drug treatment, media was removed from the plates via gentle tapping and the cells were fixed to the plates with 100 μL/well of 1:1 acetone:methanol.
(§6) 2. After one minute of incubation at room temperature, plates were washed three times with 100 μL/well of ELISA wash solution and then blocked with 150 μL/well of 10% FBS-TNE.
(§7) 3. After a one hour incubation at room temperature, plates were washed three times with 100 μL/well of ELISA wash solution, and then 100 μL/well of mouse anti-hepatitis C […] mAb (1 mg/mL stock diluted 1:1,500 in 10% FBS-TNE) was added.
(§8) 4. Following 2 hours of incubation at 37° C., plates were washed three times with 100 μL/well of ELISA wash solution, and then 100 μL/well of HRP-goat anti-mouse antibody (diluted 1:4,000 in 10% FBS-TNE) was added.
(§9) 4. After a one hour incubation period at 37° C., each plate was washed three times with 100 μL/well of ELISA wash solution. Color development was then initiated with 100 μL/well of OPD solution.
(§10) 5. After a 30 minute incubation period in the dark at room temperature, reactions were stopped by adding 100 μL of 2NH2SO4 to each well.
(§11) 6. The absorbance was measured at 490 nm on a Victor^3 V 1420 multilabel counter (Perkin Elmer). The percent inhibition of HCV replicon replication was calculated for each drug using an average of the duplicate wells.

[2] = test system: S282T HCV replicon (184R-D2 cells); assay: microbe, parasite or virus in culture; conditions: Hepatitis C virus
Description: as §1, §2, §3, §4, §5, §6, §7, §8, §9, §10, §11

[3] = test system: wild-type HCV replicon (GS4.1 cells); assay: microbe, parasite or virus in culture; conditions: Hepatitis C virus
Description: as §1, §2, §3, §4, §5, §6, §7, §8, §9, §10, §11

[4] = test system: HCV genotype 1b replicon (GS4.1 cells); assay: In vitro combination of Compound 1 and ribavirin on HCV replicon (NS4A ELISA; MacSynergy II, CombiTool, CalcuSyn); assay type: cell-based; conditions: Hepatitis C virus, 72 h, single-drug titration experiments, three days
Description: This setup was run in duplicate in each 96-well plate.
Cells were incubated with inhibitors for three days at 37° C./5% CO2.
After three days of drug treatment, media was removed from the plates via gentle tapping and the cells were fixed to the plates with 100 μL/well of 1:1 acetone:methanol.
After one minute of incubation at room temperature, plates were washed three times with 100 μL/well of ELISA wash solution and then blocked with 150 μL/well of 10% FBS-TNE.
After a one hour incubation period at 37° C., each plate was washed three times with 100 μL/well of ELISA wash solution. Color development was then initiated with 100 μL/well of OPD solution.
After a 30 minute incubation period in the dark at room temperature, reactions were stopped by adding 100 μL of 2NH2SO4 to each well.
The absorbance was measured at 490 nm on a Victor^3 V 1420 multilabel counter (Perkin Elmer).

[5] = Cytotoxicity (MTS assay), 184R-A cells; assay type: cell-based; conditions: human, 184R-A cells (S282T), 184R-A (S282T), N = 3
Description: (§12) Cells were plated and treated with inhibitors as described above.

[6] = Cytotoxicity (MTS assay), GS4.1 cells, Example 18; assay type: cell-based, human; conditions: human, GS4.1 cells (wild-type); GS4.1 (wild-type), MTS assay, N = 3
Description: as §12

GS4.1 cells [7] = assay: Cytotoxicity (MTS assay), GS4.1 cells, Example 18; assay type: cell-based, human; conditions: wild-type or S282T replicon cells treated with up to 100 μM
Description: as §12

[8] = Cytotoxicity (MTS assay), 184R-D2 cells; assay type: cell-based; conditions: human, 184R-D2 cells (S282T), 184R-D2 (S282T), N = 3
Description: as §12

GS4.1 cells [9] = assay: Cytotoxicity of Compound 1 and RBV on GS4.1 cells using MTS assay (combination study); conditions: three days, 0.6× to 1.5× EC50, alone or in combination
Description: The readout of the assay was measured by the bioreduction of the yellow MTS tetrazolium compound to a purple formazan product. This conversion is mediated by NADPH or NADH in metabolically active cells and is therefore directly proportional to the number of live cells in a culture. Plates were setup as described above.
Cells were plated and treated with inhibitors using the drug matrix described above.
After three days of drug treatment, 20 μL of MTS was added to each well, and then plates were incubated at 37° C./5% CO2.

[10] = test system: HCV genotype 1b replicon (GS4.1 cells); assay: HCV replicon assay (NS4A ELISA); assay type: cell-based, hepatitis C virus; conditions: 3 days
Description: The biological activity of Compound 1, diastereomer 1 and diastereomer 2 was measured by monitoring expression of the NS4A protein by enzyme-linked immunosorbent assay (ELISA) and by luciferase assay as described below:
The HCV replicon assay measures the ability of a test compound to inhibit HCV replication in cell culture after 3 days of treatment in a human hepatoma cell line (Huh-7) bearing the HCV genotype 1b replicon (GS4.1 cells). The inhibition of HCV replication was measured by quantification of viral NS4A protein using an enzyme-linked immunosorbent assay (ELISA). […] Additionally, the replicon contains the neomycin phosphotransferase gene under the control of the HCV promoter (Source: Dr. Christoph Seeger, Fox Chase Cancer Center, Philadelphia, Pa.).
The NS4A ELISA assay is summarized as follows. Ninety-six-well tissue culture plates were seeded with GS4.1 cells. Antiviral compound solutions were made up freshly in medium as 2×-concentrated stocks. Eight additional 3-fold drug dilutions were prepared from these stocks in medium for a total of 9 dilutions. At least four hours after GS4.1 cells were seeded, drug treatment was initiated by adding one volume of each 2× concentrated drug dilution to one volume of cells/medium in the tissue culture plates. Cells were then incubated for 3 days at 37° C./5% CO2.
The media/compound was then removed from the plates and cells were fixed with acetone:methanol, washed three times with a wash solution, and then blocked for 1 hour with 10% fetal bovine serum in a balanced salt solution. Cells were washed three times and incubated with an anti-hepatitis C NS4A monoclonal antibody (Virogen Corp.) for 2 hours at 37° C. […] The reaction was stopped with diluted sulfuric acid (Mallinckrodt Chemicals) and absorbance measured on a Victor^3V 1420 multilabel counter (Perkin Elmer). EC50 values were calculated from dose response curves from the resulting best-fit equations determined by Microsoft Excel and XLfit 4.1 software.

[11] = test system: HCV genotype 1b replicon (Zluc cells); assay: HCV luciferase replicon assay; assay type: cell-based, hepatitis C virus; conditions: 3 days
Description: The HCV luciferase replicon assay measures the ability of a test compound to inhibit HCV replication in cell culture after 3 days of treatment in a human hepatoma cell line (Huh-7) bearing the HCV genotype 1b replicon and a luciferase-neomycin phosphotransferase fusion gene. The inhibition of HCV replication was measured by quantification of luciferase protein expression. The HCV luciferase replicon was constructed by fusing a luciferase gene to the amino terminus of the neomycin phosphotransferase gene of the ZS11 HCV replicon. The ZS11 HCV replicon (Zhu Q, Guo J-T, and Seeger C, 2003) is derived from the SP1 replicon, but contains three cell culture-adapted mutations: E1202G (NS3), S22041 (NS5A), and D2254E (NS5A). These mutations allow for efficient in vitro replication. The luciferase reporter gene was amplified from the pGL4.13[luc2/SV40] vector (Promega Corp.). The replicon resulting from the luciferase-neomycin fusion (ZS11-luc) was stably-transfected into Huh-7 cells, yielding the Zluc cell line.
The luciferase replicon assay is summarized as follows: Solid white 96-well tissue culture plates (BD Falcon) were seeded with Zluc cells. Antiviral compound solutions were made up freshly in medium as 2×-concentrated stocks. Eight additional 3-fold drug dilutions were prepared from these stocks in medium for a total of 9 dilutions. At least four hours after Zluc cells were seeded, drug treatment was initiated by adding one volume of each 2×-concentrated drug dilution to one volume of cells/medium in the tissue culture plates. Cells were then incubated for 3 days at 37° C./5% CO2.
The media/compound was then removed from the plates and the ONE-glo Luciferase assay reagent (Promega) was added to each well. The assay plates were shaken for 3 minutes at room temperature and luciferase activity for each well was measured with a 1 sec read time on the Victor^3V multilabel counter using a 700 nm cut-off filter (Perkin Elmer). EC50 values were calculated from dose response curves from the resulting best-fit equations determined by Microsoft Excel and XLfit 4.1 software.

GS4.1 cells [12] = assay: Cytotoxicity assay (MTS), GS4.1 cells; assay type: cell-based, human; conditions: 3 days (NS4A-ELISA Assay)
Description: (§13) The cytotoxicity assay measures the viability of cells after treatment with a test compound for 3 days in either GS4.1 cells or Zluc cells. […] The cytotoxicity assay is summarized as follows. Ninety-six-well tissue culture plates were seeded with GS4.1 or Zluc cells. Antiviral compound solutions were made up freshly in medium as 2×-concentrated stocks. Eight additional 3-fold drug dilutions were prepared from these stocks in medium for a total of 9 dilutions. At least four hours after the cells were seeded, drug treatment was initiated by adding one volume of each 2×-concentrated drug dilution to one volume of cells/medium in the tissue culture plates. Cells were then incubated for 3 days at 37° C./5% CO2. After 3 days of treatment, the CellTiter 96® Aqueous One Solution cell proliferation assay (Promega) was performed by adding the MTS solution to each well. The plates were then incubated at 37° C./5% CO2 for 3.5 hours. Plates were then read in a Victor^3V 1420 multilabel counter (Perkin Elmer) and CC50 concentrations were determined using Microsoft Excel and XLfit 4.1 software.

Zluc cells = assay: Cytotoxicity assay (MTS), Zluc cells; assay type: cell-based, human
Description: as §13

With NC(=O)c1ncn([C@@H]2O[C@H](CO)[C@@H](O)[C@H]2O)n1 [RBV, ribavirin, reference compound] the EC50 [1] was 12.3 ± 1.9 µM, the EC50 [2] was 17 ± 3.5 µM and the EC50 [3] was 38 ± 2.8 µM. For the same compound, the EC50 [4] was 21.8 ± 3.6 µM, the CC50 at 3 days [5] was > 100 µM and the CC50 at 3 days [6] was > 100 µM. The “in vitro cytotoxicity (MTS)” value (GS4.1 cells [7]) was “no evidence of in vitro cytotoxicity”, the CC50 at 3 days [8] was > 100 µM and the “in vitro cytotoxicity (MTS)” value (GS4.1 cells [9]) was “no evidence of in vitro cytotoxicity”.
For CC(C)(CO)C(=O)SCCOP(=O)(NCc1ccccc1)OC[C@H]1O[C@@H](n2cnc3c(=O)[nH]c(N)nc32)[C@](C)(O)[C@@H]1O (single isomer, unassigned; diastereomer 2) [Diastereomer 2], the EC50 [10] was 0.244 ± 0.098 µM, the EC50 [11] was 0.0568 ± 0.0006 µM and the CC50 (GS4.1 cells [12]) was > 100 µM. For the same compound, the CC50 (Zluc cells) was > 100 µM.
